# Laboratory results reported in ChEMBL document CHEMBL6078723, “Novel steroidal β-carboline derivatives as promising antibacterial candidates against methicillin-resistant Staphylococcus aureus” (Eur J Med Chem, 2025).
# Columns and labels:
# Assay type in all cases: functional
# Staphylococcus aureus [1] = test: Antibacterial activity against Staphylococcus aureus CGMCC1.8721
# Staphylococcus aureus [2] = test: Bactericidal activity against methicillin-resistant Staphylococcus aureus CGMCC1.12409 by CLSI based method
# Staphylococcus aureus [3] = test: Antibacterial activity against methicillin-resistant Staphylococcus aureus ATCC 43300
# Staphylococcus aureus [4] = test: Bactericidal activity against Staphylococcus aureus CGMCC1.8721 by CLSI based method
# Staphylococcus aureus [5] = test: Bactericidal activity against methicillin-resistant Staphylococcus aureus ATCC 43300 by CLSI based method
# Staphylococcus aureus [6] = test: Bactericidal activity against methicillin-resistant Staphylococcus aureus ATCC 33591 by CLSI based method
# Staphylococcus aureus [7] = test: Antibacterial activity against methicillin-resistant Staphylococcus aureus ATCC 33591
# Staphylococcus aureus [8] = test: Antibacterial activity against methicillin-resistant Staphylococcus aureus CGMCC1.12409
SMILES,MIC (Staphylococcus aureus [1]),MBC (Staphylococcus aureus [2]),MIC (Staphylococcus aureus [3]),MBC (Staphylococcus aureus [4]),MBC (Staphylococcus aureus [5]),MBC (Staphylococcus aureus [6]),MIC (Staphylococcus aureus [7]),MIC (Staphylococcus aureus [8])
COc1ccc2[nH]c3c(CC[C@H](C)[C@H]4CC[C@H]5[C@@H]6[C@H](O)C[C@@H]7C[C@H](O)CC[C@]7(C)[C@H]6C[C@H](O)[C@]45C)[n+](Cc4ccccc4C)ccc3c2c1.[Br-],0.5 µg/mL,8 µg/mL,1 µg/mL,1 µg/mL,4 µg/mL,8 µg/mL,4 µg/mL,4 µg/mL
COc1ccc2[nH]c3c(CC[C@H](C)[C@H]4CC[C@H]5[C@@H]6[C@H](O)C[C@@H]7C[C@H](O)CC[C@]7(C)[C@H]6C[C@H](O)[C@]45C)[n+](Cc4cccc(F)c4)ccc3c2c1.[Br-],1 µg/mL,4 µg/mL,1 µg/mL,2 µg/mL,2 µg/mL,2 µg/mL,2 µg/mL,2 µg/mL
CCC[n+]1ccc2c([nH]c3ccc(OC)cc32)c1CC[C@H](C)[C@H]1CC[C@H]2[C@@H]3[C@H](O)C[C@@H]4C[C@H](O)CC[C@]4(C)[C@H]3CC[C@]12C.[Br-],1 µg/mL,4 µg/mL,2 µg/mL,2 µg/mL,2 µg/mL,4 µg/mL,2 µg/mL,2 µg/mL
COc1ccc2[nH]c3c(CC[C@H](C)[C@H]4CC[C@H]5[C@@H]6[C@H](O)C[C@@H]7C[C@H](O)CC[C@]7(C)[C@H]6C[C@H](O)[C@]45C)[n+](Cc4ccc(F)cc4)ccc3c2c1.[Br-],0.5 µg/mL,2 µg/mL,1 µg/mL,1 µg/mL,2 µg/mL,2 µg/mL,2 µg/mL,1 µg/mL
CC[n+]1ccc2c([nH]c3ccc(OC)cc32)c1CC[C@H](C)[C@H]1CC[C@H]2[C@@H]3[C@H](O)C[C@@H]4C[C@H](O)CC[C@]4(C)[C@H]3C[C@H](O)[C@]12C.[Br-],16 µg/mL,,16 µg/mL,,,,16 µg/mL,16 µg/mL
CC[n+]1ccc2c([nH]c3ccc(OC)cc32)c1CC[C@H](C)[C@H]1CC[C@H]2[C@@H]3CC[C@@H]4C[C@H](O)CC[C@]4(C)[C@H]3CC[C@]12C.[Br-],16 µg/mL,,16 µg/mL,,,,32 µg/mL,16 µg/mL
COc1ccc2[nH]c3c(CC[C@H](C)[C@H]4CC[C@H]5[C@@H]6[C@H](O)C[C@@H]7C[C@H](O)CC[C@]7(C)[C@H]6CC[C@]45C)[n+](Cc4ccc(F)cc4)ccc3c2c1.[Br-],4 µg/mL,,4 µg/mL,,,,8 µg/mL,4 µg/mL
COc1ccc2[nH]c3c(CC[C@H](C)[C@H]4CC[C@H]5[C@@H]6[C@H](O)C[C@@H]7C[C@H](O)CC[C@]7(C)[C@H]6CC[C@]45C)[n+](Cc4ccc(Br)cc4)ccc3c2c1.[Br-],16 µg/mL,,16 µg/mL,,,,32 µg/mL,16 µg/mL
COc1ccc2[nH]c3c(CC[C@H](C)[C@H]4CC[C@H]5[C@@H]6CC[C@@H]7C[C@H](O)CC[C@]7(C)[C@H]6CC[C@]45C)[n+](Cc4ccc(OC(F)(F)F)cc4)ccc3c2c1.[Br-],16 µg/mL,,16 µg/mL,,,,32 µg/mL,16 µg/mL
COc1cccc(C[n+]2ccc3c([nH]c4ccc(OC)cc43)c2CC[C@H](C)[C@H]2CC[C@H]3[C@@H]4[C@H](O)C[C@@H]5C[C@H](O)CC[C@]5(C)[C@H]4CC[C@]23C)c1.[Br-],4 µg/mL,,8 µg/mL,,,,8 µg/mL,8 µg/mL
COc1ccc2[nH]c3c(CC[C@H](C)[C@H]4CC[C@H]5[C@@H]6[C@H](O)C[C@@H]7C[C@H](O)CC[C@]7(C)[C@H]6CC[C@]45C)[n+](Cc4ccccc4C)ccc3c2c1.[Br-],16 µg/mL,,16 µg/mL,,,,16 µg/mL,16 µg/mL
COc1ccc2[nH]c3c(CC[C@H](C)[C@H]4CC[C@H]5[C@@H]6[C@H](O)C[C@@H]7C[C@H](O)CC[C@]7(C)[C@H]6CC[C@]45C)[n+](Cc4ccc(C)cc4)ccc3c2c1.[Br-],16 µg/mL,,16 µg/mL,,,,16 µg/mL,16 µg/mL
COc1ccc2[nH]c3c(CC[C@H](C)[C@H]4CC[C@H]5[C@@H]6CC[C@@H]7C[C@H](O)CC[C@]7(C)[C@H]6CC[C@]45C)[n+](Cc4ccc(C(F)(F)F)cc4)ccc3c2c1.[Br-],16 µg/mL,,16 µg/mL,,,,32 µg/mL,16 µg/mL
COc1ccc2[nH]c3c(CC[C@H](C)[C@H]4CC[C@H]5[C@@H]6[C@H](O)C[C@@H]7C[C@H](O)CC[C@]7(C)[C@H]6CC[C@]45C)[n+](Cc4ccc(OC(F)(F)F)cc4)ccc3c2c1.[Br-],16 µg/mL,,16 µg/mL,,,,16 µg/mL,16 µg/mL
CCCC[n+]1ccc2c([nH]c3ccc(OC)cc32)c1CC[C@H](C)[C@H]1CC[C@H]2[C@@H]3[C@H](O)C[C@@H]4C[C@H](O)CC[C@]4(C)[C@H]3C[C@H](O)[C@]12C.[Br-],16 µg/mL,,16 µg/mL,,,,16 µg/mL,16 µg/mL
COc1ccc2[nH]c3c(CC[C@H](C)[C@H]4CC[C@H]5[C@@H]6[C@H](O)C[C@@H]7C[C@H](O)CC[C@]7(C)[C@H]6CC[C@]45C)[n+](Cc4cccc(F)c4)ccc3c2c1.[Br-],4 µg/mL,,8 µg/mL,,,,8 µg/mL,8 µg/mL
COc1ccc(OC)c(C[n+]2ccc3c([nH]c4ccc(OC)cc43)c2CC[C@H](C)[C@H]2CC[C@H]3[C@@H]4[C@H](O)C[C@@H]5C[C@H](O)CC[C@]5(C)[C@H]4CC[C@]23C)c1.[Br-],4 µg/mL,,8 µg/mL,,,,8 µg/mL,8 µg/mL
CCCCC[n+]1ccc2c([nH]c3ccc(OC)cc32)c1CC[C@H](C)[C@H]1CC[C@H]2[C@@H]3[C@H](O)C[C@@H]4C[C@H](O)CC[C@]4(C)[C@H]3CC[C@]12C.[Br-],8 µg/mL,,16 µg/mL,,,,16 µg/mL,16 µg/mL
COc1ccc2[nH]c3c(CC[C@H](C)[C@H]4CC[C@H]5[C@@H]6[C@H](O)C[C@@H]7C[C@H](O)CC[C@]7(C)[C@H]6CC[C@]45C)[n+](Cc4cccc(Cl)c4)ccc3c2c1.[Br-],16 µg/mL,,16 µg/mL,,,,32 µg/mL,16 µg/mL
CCC[n+]1ccc2c([nH]c3ccc(OC)cc32)c1CC[C@H](C)[C@H]1CC[C@H]2[C@@H]3[C@H](O)C[C@@H]4C[C@H](O)CC[C@]4(C)[C@H]3C[C@H](O)[C@]12C.[Br-],16 µg/mL,,16 µg/mL,,,,16 µg/mL,16 µg/mL
COc1ccc2[nH]c3c(CC[C@H](C)[C@H]4CC[C@H]5[C@@H]6[C@H](O)C[C@@H]7C[C@H](O)CC[C@]7(C)[C@H]6CC[C@]45C)[n+](Cc4ccccc4F)ccc3c2c1.[Br-],4 µg/mL,,4 µg/mL,,,,8 µg/mL,8 µg/mL
